In ChEMBL document CHEMBL3877255, “Structure-activity relationship (SAR) study and design strategies of nitrogen-containing heterocyclic moieties for their anticancer activities” (Eur J Med Chem, 2017):
Values after ≈ are worked out from the molar mass of the structure shown. One block for each compound: values may come before it.

Key:
[1] = Cytotoxicity against human MCF7 cells by MTT assay; type: functional, cell-based
[2] = Cytotoxicity against human MDA-MB-231 cells by MTT assay; type: functional, cell-based
[3] = Cytotoxicity against human PC3 cells by MTT assay; type: functional, cell-based; conditions: PC-3
[4] = Cytotoxicity against human DU145 cells by MTT assay; type: functional, cell-based; conditions: DU-145
[5] = Cytotoxicity against human A549 cells measured after 3 days by MTT assay; type: functional; conditions: A549, 72 h
[6] = Cytotoxicity against human MCF7 cells measured after 3 days by MTT assay; type: functional; conditions: MCF7, 72 h
[7] = Cytotoxicity against human HepG2 cells after 72 hrs by sulforhodamine-B assay; type: functional, cell-based; conditions: HepG2, 72 h
[8] = Cytotoxicity against human A549 cells by sulforhodamine-B assay; type: functional, cell-based
[9] = Cytotoxicity against human NCI-H157 cells by sulforhodamine-B assay; type: functional, cell-based
[10] = Cytotoxicity against human Calu1 cells by sulforhodamine-B assay; type: functional, cell-based; conditions: Calu-1
[11] = target: cGMP-inhibited 3',5'-cyclic phosphodiesterase 3A (Homo sapiens, UniProt Q14432); test: Inhibition of human PDE3A using fluorescein-labelled cAMP as substrate measured after 60 mins by IMAP TR-FRET assay
[12] = Cytotoxicity against human HeLa cells measured after 24 hrs by MTT assay; type: functional, cell-based
[13] = Cytotoxicity against human MCF7 cells measured after 24 hrs by MTT assay; type: functional, cell-based; conditions: MCF7, 24 h
[14] = Cytotoxicity against human HeLa cells measured after 3 days by MTT assay; type: functional; conditions: 72 h

cGMP-inhibited 3',5'-cyclic phosphodiesterase 3A, sequence (Q14432 whole entry): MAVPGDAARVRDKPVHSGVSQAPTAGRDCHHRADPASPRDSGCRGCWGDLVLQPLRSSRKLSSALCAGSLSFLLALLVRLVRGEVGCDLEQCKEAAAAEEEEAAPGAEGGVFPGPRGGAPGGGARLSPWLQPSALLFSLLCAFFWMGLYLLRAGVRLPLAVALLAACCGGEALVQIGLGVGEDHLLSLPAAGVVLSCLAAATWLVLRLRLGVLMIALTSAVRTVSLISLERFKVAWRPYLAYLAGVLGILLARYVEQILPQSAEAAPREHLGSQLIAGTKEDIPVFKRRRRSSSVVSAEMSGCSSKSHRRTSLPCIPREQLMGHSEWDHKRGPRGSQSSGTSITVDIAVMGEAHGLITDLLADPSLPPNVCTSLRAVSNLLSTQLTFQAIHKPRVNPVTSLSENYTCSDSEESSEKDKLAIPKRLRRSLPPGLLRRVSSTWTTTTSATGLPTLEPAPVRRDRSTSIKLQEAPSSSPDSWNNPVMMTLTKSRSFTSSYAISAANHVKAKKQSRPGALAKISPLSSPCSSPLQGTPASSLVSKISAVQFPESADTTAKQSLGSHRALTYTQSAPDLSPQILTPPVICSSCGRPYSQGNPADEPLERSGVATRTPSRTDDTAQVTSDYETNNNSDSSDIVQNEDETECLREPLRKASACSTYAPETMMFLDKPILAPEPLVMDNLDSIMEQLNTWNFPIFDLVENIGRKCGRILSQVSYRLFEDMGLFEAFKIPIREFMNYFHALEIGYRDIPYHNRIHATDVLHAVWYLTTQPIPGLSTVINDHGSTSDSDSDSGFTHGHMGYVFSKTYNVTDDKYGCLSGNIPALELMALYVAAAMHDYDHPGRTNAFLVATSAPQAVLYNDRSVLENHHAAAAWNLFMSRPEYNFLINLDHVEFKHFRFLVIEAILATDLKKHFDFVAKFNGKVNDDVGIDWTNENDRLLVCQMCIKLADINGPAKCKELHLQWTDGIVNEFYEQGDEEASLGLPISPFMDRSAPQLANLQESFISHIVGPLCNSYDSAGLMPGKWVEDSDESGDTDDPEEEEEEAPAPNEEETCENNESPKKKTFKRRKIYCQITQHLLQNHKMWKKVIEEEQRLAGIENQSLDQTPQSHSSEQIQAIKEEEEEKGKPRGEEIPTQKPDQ

Structure (SMILES): Clc1cccc(Cl)c1C1=NO[C@@]2(CCCCO2)[C@H]1Br
- IC50 [1]: 43 to 56 µM
- IC50 [2]: 43 to 56 µM
- IC50 [3]: 43 to 56 µM
- IC50 [4]: 43 to 56 µM

Structure (SMILES): Cc1ccc2nc3ccccc3c(Nc3cccc(Cl)c3)c2c1
- CC50 [5]: 188 µg/mL (≈ 588 µM)
- CC50 [6]: 212 µg/mL (≈ 667 µM)

Structure (SMILES): CC(C)NC(=O)c1cccc2c(Cc3cccc(Cl)c3)c3ccccc3nc12
- CC50 [5]: 100 µg/mL (≈ 257 µM)

Structure (SMILES): COC(=O)c1ccccc1-n1c(N)c(C#N)c(-c2ccc(N(C)C)cc2)cc1=O
- IC50 [7]: 0.02 µM

Structure (SMILES): Cc1onc(-c2ccc([N+](=O)[O-])cc2)c1C(=O)/C=C/c1ccccc1Br
- IC50 [8]: 11.1 µM
- IC50 [9]: 7.27 µM

Structure (SMILES): Cc1onc(-c2ccc([N+](=O)[O-])cc2)c1C(=O)/C=C/c1ccccc1Cl
- IC50 [10]: 2.07 µM
- IC50 [9]: 1.35 µM

Structure (SMILES): Clc1ccc(C2=NO[C@@]3(CCCCO3)[C@H]2Br)cc1
- IC50 [1]: 43 to 56 µM
- IC50 [2]: 43 to 56 µM
- IC50 [3]: 43 to 56 µM
- IC50 [4]: 43 to 56 µM

- IC50 [11]: 0.00376 µM
Structure (SMILES): CCSc1ncc(-c2cc(-c3ccc(Br)cc3)[nH]c(=N)c2C#N)n1Cc1ccccc1
- IC50 [12]: 34.3 µM
- IC50 [13]: 50.2 µM

Structure (SMILES): CC(C)NC(=O)c1cccc2c(Cc3ccc(C(=O)O)cc3)c3ccccc3nc12
- CC50 [14]: 47.5 µg/mL (≈ 119 µM)

Structure (SMILES): COC(=O)c1ccccc1-n1c(N)c(C(N)=O)c(-c2ccc(N(C)C)cc2)cc1=O
- IC50 [7]: 1.34 µM
